From patent US8258122B2, “3-([1,2,4]triazolo[4,3-a]pyridin-7-yl)benzamide derivatives” (Almirall, S.A., priority 2007, dated 2012)

Target: T1, human p38alfa (SAPKa) enzyme (Homo sapiens, UniProt Q16539)
T1 construct: purchased University of Dundee
Experiment: p38 enzymatic inhibition assay (FRET, biotinylated ATF2 substrate)
Assay type: biochemical
Details: 1 h pre-incubation; ATF2 0.62 μM, ATP 60 μM; 25° C.; read-out: p38α IC50
Experimental: Enzymatic activity assay was performed in 96-well microtiter plates (Corning, catalog number # 3686) using a total volume of 50 μl of an assay buffer composed of 50 mM HEPES pH 7.5, 10 mM MgCl2, 1.75 mM Na3VO4.
Various concentrations of the test compound or vehicle controls were pre-incubated for one hour with 0.055 μg/ml of the human p38alfa (SAPKa) enzyme (obtained from University of Dundee). The reaction started by addition of biotinylated ATF2 substrate and ATP in concentrations around their Km values (final concentration 0.62 μM and 60 μM respectively) and took place for one hour at 25° C. Addition of the detection reagents, streptavidin—XL665 and anti-phosphoresidue antibody coupled to Europium cryptate, caused the juxtaposition of the cryptate and the XL665 fluorophore, resulting in fluorescence energy transfer (FRET). The FRET intensity depends on the amount of bounded cryptate antibody, which is proportional to the extent of substrate phosphorylation. FRET intensity was measured using Victor 2V spectrofluorometer.
Data were analyzed by non-linear regression (Hill equation) to generate a dose-response curve. The calculated IC50 value is the concentration of the test compound that caused a 50% decrease in the maximal FRET intensity.

T1 sequence (Q16539 whole entry): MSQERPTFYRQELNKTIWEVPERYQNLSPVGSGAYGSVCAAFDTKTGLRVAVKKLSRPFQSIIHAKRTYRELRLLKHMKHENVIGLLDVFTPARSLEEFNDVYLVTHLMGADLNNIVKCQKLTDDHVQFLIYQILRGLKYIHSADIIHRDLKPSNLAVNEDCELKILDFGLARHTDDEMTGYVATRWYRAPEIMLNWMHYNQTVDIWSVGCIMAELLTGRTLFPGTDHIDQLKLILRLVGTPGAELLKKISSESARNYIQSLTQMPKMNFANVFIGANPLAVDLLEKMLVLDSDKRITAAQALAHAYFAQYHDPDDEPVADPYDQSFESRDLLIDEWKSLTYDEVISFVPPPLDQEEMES

SMILES	IC50
Cc1c(F)cc(C(=O)NC2CC2)cc1-c1c(F)cn2c(C(C)(C)N(C)C)nnc2c1F [Example 47, N-Cyclopropyl-3-{3-[1-(dimethylamino)-1-methylethyl]-6,8-difluoro[1,2,4]triazolo-[4,3-a]pyridin-7-yl}-5-fluoro-4-methylbenzamide]	15.4 nM
CO[C@@H](C)c1nnc2cc(-c3cc(C(=O)NC4CC4)ccc3C)ccn12 [Example 38, N-Cyclopropyl-3-{3-[(1S)-1-methoxyethyl][1,2,4]triazolo[4,3-a]pyridin-7-yl}-4-methylbenzamide]	38 nM
Cc1ccc(C(=O)NC2CC2)cc1-c1ccn2c(-c3ccncc3Cl)nnc2c1 [Example 30, 3-[3-(3-Chloropyridin-4-yl)[1,2,4]triazolo[4,3-a]pyridin-7-yl]-N-cyclopropyl-4-methylbenzamide]	38 nM
Cc1c(F)cc(C(=O)NC2CC2)cc1-c1ccn2c(C3CCOCC3)nnc2c1 [Example 33, N-Cyclopropyl-3-fluoro-4-methyl-5-[3-(tetrahydro-2H-pyran-4-yl)[1,2,4]triazolo[4,3-a]pyridin-7-yl]benzamide]	30 nM
Cc1ccc(C(=O)NC2CC2)cc1-c1ccn2c(NCC3CC3)nnc2c1 [Example 7, N-Cyclopropyl-3-(3-(cyclopropylmethylamino)-[1,2,4]triazolo[4,3-a]pyridin-7-yl)-4-methylbenzamide]	75 nM
Cc1ccc(C(=O)NC2CC2)cc1-c1ccn2c(C(C)(C)C)nnc2c1 [Example 1, 3-(3-tert-Butyl-[1,2,4]triazolo[4,3-a]pyridin-7-yl)-N-cyclopropyl-4-methylbenzamide]	16 nM
Cc1c(F)cc(C(=O)NC2CC2)cc1-c1ccn2c(C(=O)N3CCCC3)nnc2c1 [Example 42, N-Cyclopropyl-3-fluoro-4-methyl-5-[3-(pyrrolidin-1-ylcarbonyl)[1,2,4]triazolo[4,3-a]pyridin-7-yl]benzamide]	46 nM
Cc1ccc(C(=O)NC2CC2)cc1-c1ccn2c(N3CCCC3)nnc2c1 [Example 16, N-Cyclopropyl-4-methyl-3-(3-pyrrolidin-1-yl-[1,2,4]triazolo[4,3-a]pyridin-7-yl)-benzamide]	83 nM
Cc1c(F)cc(C(=O)NC2CC2)cc1-c1c(F)cn2c(C(C)(C)N)nnc2c1F [Example 46, 3-[3-(1-Amino-1-methylethyl)-6,8-difluoro[1,2,4]triazolo[4,3-a]pyridin-7-yl]-N-cyclopropyl-5-fluoro-4-methylbenzamide]	11.9 nM
Cc1c(F)cc(C(=O)NC2CC2)cc1-c1c(F)cn2c(C3CC3)nnc2c1F [Example 23, N-cyclopropyl-3-(3-cyclopropyl-6,8-difluoro[1,2,4]triazolo[4,3-a]pyridin-7-yl)-5-fluoro-4-methylbenzamide]	10 nM
Cc1ccc(C(=O)NC2CC2)cc1-c1ccn2c(-c3ccccc3Cl)nnc2c1 [Example 6, 3-(3-(2-Chlorophenyl)-[1,2,4]triazolo[4,3-a]pyridin-7-yl)-N-cyclopropyl-4-methylbenzamide]	6 nM

Stronger by IC50, values ahead:

IC50	SMILES
3.2 nM	Cc1ccc(C(=O)NC2CC2)cc1-c1cc2nnc(C(C)(C)C)n2cc1F [Example 18, 3-(3-tert-Butyl-6-fluoro-[1,2,4]triazolo[4,3-a]pyridin-7-yl)-N-cyclopropyl-4-methylbenzamide]
3.1 nM	Cc1c(F)cc(C(=O)NC2CC2)cc1-c1ccn2c(C(C)(C)O)nnc2c1 [Example 45, N-Cyclopropyl-3-fluoro-5-[3-(1-hydroxy-1-methylethyl)[1,2,4]triazolo[4,3-a]pyridin-7-yl]-4-methylbenzamide]
3 nM	Cc1c(F)cc(C(=O)NC2CC2)cc1-c1ccn2c(C(C)C)nnc2c1 [Example 28, N-cyclopropyl-3-fluoro-5-(3-isopropyl[1,2,4]triazolo[4,3-a]pyridin-7-yl)-4-methylbenzamide]
2 nM	Cc1c(F)cc(C(=O)NC2CC2)cc1-c1cc2nnc(C(C)(C)C)n2cc1F [Example 19, 3-(3-tert-Butyl-6-fluoro-[1,2,4]triazolo[4,3-a]pyridin-7-yl)-N-cyclopropyl-5-fluoro-4-methylbenzamide]
2 nM	Cc1c(F)cc(C(=O)NC2CC2)cc1-c1ccn2c(C(C)(C)C)nnc2c1 [Example 9, 3-(3-tert-Butyl-[1,2,4]triazolo[4,3-a]pyridin-7-yl)-N-cyclopropyl-5-fluoro-4-methylbenzamide]
0.3 nM	Cc1c(F)cc(C(=O)NC2CC2)cc1-c1ccn2c(-c3ccncc3Cl)nnc2c1 [Example 31, 3-[3-(3-Chloropyridin-4-yl)[1,2,4]triazolo[4,3-a]pyridin-7-yl]-N-cyclopropyl-5-fluoro-4-methylbenzamide]
